We go through two compounds from article PMC6348446 (Journal of Medicinal Chemistry, 2018).

As a reminder, the remaining activity is the share of the control activity or signal that is left under treatment. A low value points to a large loss of activity.

The structures appear in SMILES notation.

The assay addresses T1, BRD9 (Homo sapiens, UniProt Q9H8M2).
T1 construct: Western blot analysis of BRD9 and BRD7 levels after treatment of HeLa cells; endogenous in cells; host or cells: HeLa
T1 sequence (Q9H8M2 1-597): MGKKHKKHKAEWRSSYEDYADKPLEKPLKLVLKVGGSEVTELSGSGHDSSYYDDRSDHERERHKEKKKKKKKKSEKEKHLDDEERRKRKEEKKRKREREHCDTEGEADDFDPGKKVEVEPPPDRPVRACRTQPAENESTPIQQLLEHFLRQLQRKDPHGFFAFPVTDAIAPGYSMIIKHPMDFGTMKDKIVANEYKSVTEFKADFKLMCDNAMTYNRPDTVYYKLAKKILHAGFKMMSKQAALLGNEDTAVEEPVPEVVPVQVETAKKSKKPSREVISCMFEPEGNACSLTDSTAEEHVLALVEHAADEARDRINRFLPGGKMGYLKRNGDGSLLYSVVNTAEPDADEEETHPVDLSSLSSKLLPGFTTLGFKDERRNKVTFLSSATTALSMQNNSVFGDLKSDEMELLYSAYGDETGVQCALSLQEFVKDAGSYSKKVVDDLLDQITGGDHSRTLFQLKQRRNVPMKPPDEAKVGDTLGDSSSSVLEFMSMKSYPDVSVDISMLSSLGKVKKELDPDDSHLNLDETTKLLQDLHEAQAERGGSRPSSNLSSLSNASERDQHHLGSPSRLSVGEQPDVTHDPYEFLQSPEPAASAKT
Nature of the assay: Western blot of BRD9 levels in RI-1 cells after compound treatment. The class given is cell-based. To be noted: for BRD9 degradation: 4 h. (In western blotting, separated proteins are transferred to a membrane and probed.)

`COc1cc(-c2cn(C)c(=O)c3cnccc23)cc(OC)c1CN1CCN(CCCCCOc2cc(-c3scnc3C)ccc2CNC(=O)[C@@H]2C[C@@H](O)CN2C(=O)[C@@H](NC(=O)C2(F)CC2)C(C)(C)C)CC1` [Compound 51, (2S,4R)-N-(2-((5-(4-(2,6-Dimethoxy-4-(2-methyl-1-oxo-1,2-dihydro-2,7-naphthyridin-4-yl)benzyl)piperazin-1-yl)pentyl)oxy)-4-(4-methylthiazol-5-yl)benzyl)-1-((S)-2-(1-fluorocyclopropane-1-carboxamido)-3,3-dimethylbutanoyl)-4-hydroxypyrrolidine-2-carboxamide]: the remaining activity at 1 µM (2 h, Table 3, % of total protein remaining relative to 0.1% DMSO vehicle, 1 μM compound, RI-1) worked out at 100%. Also, where the note is “RI-1 cells, 100 nM, 30 min”, the “decrease of BRD9 level” value is reported as “more than 50%”. Further, the BRD9 degradation result (RI-1 cells, 100 nM) is listed as “more than 90%”. Where the note is “RI-1 cells, 2 and 8 h”, the “concentration window of maximal protein degradation of BRD9” value was 10 to 100 nM.
For the compound `COc1cc(-c2cn(C)c(=O)c3cnccc23)cc(OC)c1CN1CCN(CCCCCOc2cc(-c3scnc3C)ccc2CNC(=O)[C@@H]2C[C@H](O)CN2C(=O)[C@@H](NC(=O)C2(F)CC2)C(C)(C)C)CC1` [cisVZ185], under “RI-1 cells, 100 nM”, the BRD9 degradation result is listed as “no degradation”.
